The text below walks through data of patent publication US6586630B1, “Ethylamine derivatives” (Chugai Seiyaku Kabushiki Kaisha, priority 1998, dated 2003).

The target in one assay is T1, Motilin receptor (Oryctolagus cuniculus, UniProt G1T803).
T1 construct: had the mucous membrane separated and homogenized in 50 mM Tris buffer to prepare a protein sample; from tissue; host or cells: rabbit duodenum with the mucous membrane separated, homogenate
The assay can be described thus: Motilin receptor binding test (125I motilin, rabbit duodenum protein sample). The conditions noted are these: 125I motilin 25 pM, concentration reducing specific binding by 50%. The protocol:
Motilin Receptor Binding Test
A motilin receptor binding test was conducted in the following manner [Vantrappen et al., Regul. Peptides, 15, 143 (1986)]. The duodenum was extracted from a slaughtered rabbit, had the mucous membrane separated and homogenized in 50 mM Tris buffer to prepare a protein sample. The protein sample was incubated together with ^125I motilin 25 pM and thereafter the radioactivity bound to the protein was measured. Specific binding was defined as the difference between the radioactivity in the case of no adding and that in the case of adding a great excess amount of motilin (10^−7 M). The activity of the compound was expressed by IC50 (in nM), as the concentration sufficient to reduce the specific binding by 50%.

For assay [1], the system named is motilin-induced contraction of longitudinal muscle in the duodenum. Briefly: Contraction suppressing test: motilin-induced contraction of a specimen of longitudinal muscle in the duodenum extracted from a rabbit. The conditions noted are these: rabbit duodenum longitudinal muscle in organ bath, Krebs solution 28° C.; effect on dose-dependent contraction by motilin. It counts as cell-based. As for the experimental part: Action on the Contraction of a Specimen of Longitudinal Muscle in the Duodenum Extracted from a Rabbit
The action on the motilin-induced contraction of a specimen of longitudinal muscle in the duodenum extracted from a rabbit was investigated by the following method. A duodenum specimen extracted from a slaughtered rabbit (5×15 mm) was suspended in an organ bath (10 ml) such that the longitudinal muscle would run vertically; the bath was filled with a Krebs solution kept at 28° C. A mixed gas (95% O2 and 5% CO2) was continuously bubbled into the Krebs solution and the contraction of the duodenum specimen was recorded isotonically (with a 1-g load) via an isotonic transducer (ME-3407, ME Commercial, Tokyo, Japan). The degree of contraction was expressed in relative values, with the contraction by acetylcholine at a dose of 10^−4 M being taken as 100%. The activity of the compound was calculated as pA2 value indicating its effect on the dose-dependent muscle contraction by the motilin put into the organ bath.

T1 sequence (G1T803 1-400): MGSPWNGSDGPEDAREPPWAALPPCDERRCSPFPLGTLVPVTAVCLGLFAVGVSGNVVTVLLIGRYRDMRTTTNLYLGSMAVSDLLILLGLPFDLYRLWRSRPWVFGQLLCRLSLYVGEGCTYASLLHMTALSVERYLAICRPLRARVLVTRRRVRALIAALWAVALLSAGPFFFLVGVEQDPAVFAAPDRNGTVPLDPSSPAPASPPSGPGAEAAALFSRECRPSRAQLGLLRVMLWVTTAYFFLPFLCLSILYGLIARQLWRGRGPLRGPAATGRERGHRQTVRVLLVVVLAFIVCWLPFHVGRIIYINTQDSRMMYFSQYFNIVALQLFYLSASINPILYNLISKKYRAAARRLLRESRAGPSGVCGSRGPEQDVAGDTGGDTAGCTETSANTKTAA

As to `CC(C)[C@@H](C(=O)NC(Cc1ccc(F)c(C(C)(C)C)c1)C(N)=O)N(C)C(=O)[C@@H](N)Cc1ccccc1` (single isomer, unassigned) [7 (A), Phe-N-Me-Val-Phe(3-tBu-4-F)—NH2], the IC50 at Motilin receptor turned out to be 3.5 nM. Also, the “Contraction suppressing test, pA2” value in assay [1] is 7.58.

Usually IC50 stands for the concentration that gives 50% inhibition. High values mean weaker potency in that assay, low ones greater potency in that assay.
